Experimental data taken from article PMC10485887, “PET Evaluation of the Novel F-18 Labeled Reversible Radioligand [^18F]GEH200449 for Detection of Monoamine Oxidase-B in the Non-Human Primate Brain” (ACS Chemical Neuroscience, 2023).

Legend:
Format in all cases: in vivo, Macaca fascicularis
[1] = Fraction of unchanged radioligand in arterial plasma (radiometabolite analysis); details: 30 min after injection
Experimental: (§1) At start of PET data acquisition, a sterile physiological phosphate buffer solution (pH = 7.4) of [^18F]GEH200449 (injected radioactivity, 107–167 MBq) was injected as a bolus into a sural vein. Emission data were acquired in list mode for 123 min. Arterial blood was sampled as previously described[28] using an automated blood sampling system (ABSS) during the first 3 min of each PET measurement. Subsequently, arterial blood samples (0.7–2.5 mL) were manually drawn at 7, 15, 30, 60, 90, and 120 min after injection of [^18F]GEH200449. After centrifugation, 0.15–1.0 mL of plasma was pipetted and plasma radioactivity was measured in a well counter. In addition, samples were taken directly from the ABSS at 0.5, 1, 1.5, 2, 2.5, and 3 min for cross-calibration with the well counter and for the determination of the plasma-to-blood ratio.
The fraction of plasma radioactivity corresponding to the unchanged radioligand in plasma was determined from arterial plasma samples collected at 2, 7, 15, 30, 60, 90, and 120 min after injection of [^18F]GEH200449 according to previously described procedures.[29]

[2] = PET whole-brain radioactivity (brain exposure) at baseline; details: for whole-brain radioactivity, maximum concentration: IV injection
Experimental: Two male and three female NHPs (#1–5) of the species M. fascicularis, weighing 4.2–8.8 kg, were supplied by the Astrid Fagraeus Laboratory, Karolinska Institutet, Solna, Sweden. Anesthesia was initiated by intramuscular injection of ketamine hydrochloride (ca. 10 mg/kg, Ketalar, Pfizer) and maintained by intravenous infusion of a mixture of ketamine hydrochloride (4 mg/kg/h) and xylazine hydrochloride (0.4 mg/kg/h Rompun Vet., Bayer).
PET measurements were conducted using the high-resolution research tomograph system (Siemens Molecular Imaging, Knoxville, TN, USA) for NHPs #1–4 and using the LFER 150 PET/CT system (Mediso Ltd., Budapest, Hungary) for NHP #5.
as §1
Dynamic images were reconstructed as previously described.[30],[31] Regions of interest (ROIs) for the whole brain and selected regions (caudate nucleus, putamen, thalamus, occipital cortex, prefrontal cortex, and cerebellum) were manually delineated on T1-weighted magnetic resonance images (MRIs) acquired as previously described.[21],[27] PET images were coregistered to the MRIs, and time-activity curves were generated by pooling ROIs for each paired anatomical region and applying the pooled ROIs to the coregistered PET images. […]

[3] = test system: MAO-B; details: from pretreatment and displacement with reference competitors
Experimental: Each PET measurement was performed on a separate experimental day. Experiments conducted in the same NHP were separated by at least 6 weeks. Baseline PET measurements were initially undertaken in each of the five NHPs.
Time curves for regional [^18F]GEH200449 binding at baseline were analyzed by kinetic modeling using 1-TC and 2-TC models,[32] and VT as outcome measures. Akaike information criterion[33] and F statistics were applied to select the preferred model. Regional estimates of VT for [^18F]GEH200449 were also obtained using the Logan linear graphical method[34] with t* fixed at 40 min. The analyses were performed using the kinetic modeling tool in PMOD v. 4.3. Occupancy at [^18F]GEH200449 binding sites was estimated based on regional VT values obtained by the Logan method at baseline and after drug administration according to a graphical procedure described in the literature.[22]

## O=c1ccoc2ccc(OCc3ccc([18F])nc3)cc12 [[^18F]GEH200449]
[1]
  parent radioligand remaining unchanged in plasma: 5–28%
[2]
  whole-brain radioactivity, maximum concentration: 4.0–6.4 %ID
[2]; n = 5 NHPs
  whole-brain radioactivity, maximum concentration: 3.4–5.2 SUV
[2]; after IV injection
  time to maximum whole-brain radioactivity concentration: 1.8 to 7.5 min
[3]
  character of binding in the NHP brain: reversible and selective toward MAO-B
